Laboratory results reported in patent US7494986B2, “Cycloalkylamine derivatives as NK-1/SSRI antagonists” (Bristol-Myers Squibb Company, priority 2004, dated 2009).

What was measured:
[1] = molecular target: T1, human serotonin transporters (Homo sapiens, UniProt P31645); test: Serotonin transporter binding assay, [3H]-citalopram competition on HEK-hSERT cell membranes; details: 1 nM [3H]-citalopram displacement, read-out: SERT IC50
T1 construct: expressed in transfected cells
Experimental: HEK-293 cells that stably express human serotonin transporters (HEK-hSERT cells) were grown at 37° C. in 5% CO2 as a monolayer in medium consisting of EMEM supplemented with 10% fetal bovine serum and G418 sulfate (500 μg/ml). To prepare membranes for radioligand binding experiments, cells were rinsed twice with phosphate-buffered saline (138 mM NaCl, 4.1 mM KCl, 5.1 mM Na2PO4, 1.5 mM […], 11.1 mM glucose, pH 7.4). Cells were transferred from plates to polypropylene tubes (16×100 mm), centrifuged at 1,200×g for 5 min and were frozen at −80° C. until assay. Following centrifugation, pellets were resuspended by homogenization in buffer consisting of 50 mM Tris (pH 7.7 at 25° C.), 120 mM NaCl and 5 mM KCl and then centrifuged at 32,000×g for 10 min. Following centrifugation, supernatants were discarded and pellets were resuspended in buffer consisting of 50 mM Tris (pH 7.4 at 25° C.), 150 mM NaCl and 5 mM KCl. […] Amount of radioligand bound in the presence and absence of competitor was analyzed by plotting (−)log drug concentration versus the amount of radioligand specifically bound. […] Ki values were calculated using the method of Cheng and Prusoff Cheng and Prusoff [Cheng, Y.-C. and Prusoff, W. H., Biochemical Pharmacology, Vol. 22, pp. 3099-3108, Pergamon Press (1973)].

[2] = molecular target: T2, neurokinin-1 (NK-1) receptor (Homo sapiens, UniProt P25103); test: NK-1 binding assay, [125I] Substance P competition on U373 cell membranes; details: Bolton Hunter labeled [125I] Substance P displacement
T2 construct: endogenously expresses the neurokinin-1 (NK-1) receptor; endogenous in cells; host or cells: U373 human glioblastoma-astrocytoma cells (membranes)
Experimental: U373 cells, a human glioblastoma-astrocytoma cell line that endogenously expresses the neurokinin-1 (NK-1) receptor, were grown in a monolayer culture at 37° C. in 5% CO2 and fed with Minimum Essential Medium (MEM) supplemented with 10% fetal bovine serum. Membranes were prepared as follows: Cells were washed twice with ice-cold phosphate-buffered saline (pH 7.4) and then incubated for 5 to 10 minutes with ice-cold 10 mM Tris buffer (pH 7.4) containing 5 mM EDTA. Cells were removed from plates, homogenized, and centrifuged at 32,000×g for 20 minutes. The resulting supernatant was discarded, and the pellet resuspended by homogenization in 50 mM Tris buffer (pH 7.4) containing 1 mM EDTA and centrifuged at 32,000×g for 20 minutes. […]
On the day of an experiment the membrane preparation was thawed, homogenized and diluted with NK-1 binding assay buffer to the appropriate concentration. […] The amount of radioligand bound in the presence and absence of competitor was analyzed by plotting (−)log drug concentration versus the amount of radioligand specifically bound. […] Ki values were calculated using the method of Cheng and Prusoff [Cheng, Y.-C. and Prusoff, W. H., Biochemical Pharmacology, Vol. 22, pp. 3099-3108, Pergamon Press (1973)].

T2 sequence (P25103 whole entry): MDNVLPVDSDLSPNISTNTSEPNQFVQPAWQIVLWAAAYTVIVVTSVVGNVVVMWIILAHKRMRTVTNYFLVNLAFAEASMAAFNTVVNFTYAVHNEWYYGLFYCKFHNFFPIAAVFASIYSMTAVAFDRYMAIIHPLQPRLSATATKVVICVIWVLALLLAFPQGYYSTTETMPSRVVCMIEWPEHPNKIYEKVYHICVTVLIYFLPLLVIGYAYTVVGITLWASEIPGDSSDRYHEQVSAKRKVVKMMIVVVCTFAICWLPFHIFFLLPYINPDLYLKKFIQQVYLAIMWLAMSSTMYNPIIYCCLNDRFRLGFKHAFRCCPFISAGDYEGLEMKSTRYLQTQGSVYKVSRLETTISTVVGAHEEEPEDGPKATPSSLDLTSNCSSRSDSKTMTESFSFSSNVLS
T1 sequence (P31645 whole entry): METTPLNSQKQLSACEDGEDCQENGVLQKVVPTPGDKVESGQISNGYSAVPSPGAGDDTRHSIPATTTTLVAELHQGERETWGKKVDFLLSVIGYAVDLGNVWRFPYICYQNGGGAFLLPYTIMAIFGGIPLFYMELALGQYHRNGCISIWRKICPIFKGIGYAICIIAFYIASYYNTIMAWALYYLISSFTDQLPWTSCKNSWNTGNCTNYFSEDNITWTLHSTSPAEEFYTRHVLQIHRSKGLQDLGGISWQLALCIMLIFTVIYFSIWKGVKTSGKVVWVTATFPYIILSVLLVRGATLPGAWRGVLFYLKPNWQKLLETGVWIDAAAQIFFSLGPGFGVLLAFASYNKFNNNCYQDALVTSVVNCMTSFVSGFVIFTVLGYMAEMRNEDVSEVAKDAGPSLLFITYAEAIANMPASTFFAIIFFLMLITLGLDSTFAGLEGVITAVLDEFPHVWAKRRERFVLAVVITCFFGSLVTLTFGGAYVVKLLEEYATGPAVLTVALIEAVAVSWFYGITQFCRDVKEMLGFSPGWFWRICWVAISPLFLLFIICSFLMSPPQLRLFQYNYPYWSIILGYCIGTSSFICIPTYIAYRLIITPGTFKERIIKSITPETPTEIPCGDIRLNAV

SMILES	IC50 [1]	IC50 [2]
FC(F)(F)c1cc(COCC2(c3ccccc3)CCCCNCC2)cc(C(F)(F)F)c1 (stereo not shown) [Example 1, 4-((3,5-bis(trifluoromethyl)benzyloxy)methyl)-4-phenylazocane]	20 to 100 nM	< 20 nM
FC(F)(F)c1cc(COCC2(c3ccccc3)CCCNCCC2)cc(C(F)(F)F)c1 [Example 2, 5-((3,5-bis(trifluoromethyl)benzyloxy)methyl)-5-phenylazocane]	20 to 100 nM	< 20 nM
